In this test the target is T1, human farnesoid X receptor (Homo sapiens, UniProt Q96RI1).
T1 construct: CMX-farnesoid X receptor (full length human farnesoid X receptor); expressed in transfected cells; host or cells: CV-1 African Green Monkey Kidney cells
T1 sequence (Q96RI1 1-472 isoform Q96RI1-2): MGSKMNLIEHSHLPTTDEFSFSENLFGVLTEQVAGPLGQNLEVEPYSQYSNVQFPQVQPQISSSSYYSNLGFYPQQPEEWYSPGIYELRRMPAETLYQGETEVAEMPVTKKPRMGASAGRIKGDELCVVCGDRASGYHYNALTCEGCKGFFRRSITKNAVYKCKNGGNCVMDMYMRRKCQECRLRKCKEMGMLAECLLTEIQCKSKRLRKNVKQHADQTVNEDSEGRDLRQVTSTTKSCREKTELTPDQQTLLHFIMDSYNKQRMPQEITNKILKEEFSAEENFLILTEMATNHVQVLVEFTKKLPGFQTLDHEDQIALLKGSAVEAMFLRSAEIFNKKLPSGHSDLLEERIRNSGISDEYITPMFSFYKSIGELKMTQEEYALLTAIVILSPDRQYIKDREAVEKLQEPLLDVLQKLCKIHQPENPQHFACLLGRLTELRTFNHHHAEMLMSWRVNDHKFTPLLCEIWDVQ
T1 sequence (P19793 1-462 partner): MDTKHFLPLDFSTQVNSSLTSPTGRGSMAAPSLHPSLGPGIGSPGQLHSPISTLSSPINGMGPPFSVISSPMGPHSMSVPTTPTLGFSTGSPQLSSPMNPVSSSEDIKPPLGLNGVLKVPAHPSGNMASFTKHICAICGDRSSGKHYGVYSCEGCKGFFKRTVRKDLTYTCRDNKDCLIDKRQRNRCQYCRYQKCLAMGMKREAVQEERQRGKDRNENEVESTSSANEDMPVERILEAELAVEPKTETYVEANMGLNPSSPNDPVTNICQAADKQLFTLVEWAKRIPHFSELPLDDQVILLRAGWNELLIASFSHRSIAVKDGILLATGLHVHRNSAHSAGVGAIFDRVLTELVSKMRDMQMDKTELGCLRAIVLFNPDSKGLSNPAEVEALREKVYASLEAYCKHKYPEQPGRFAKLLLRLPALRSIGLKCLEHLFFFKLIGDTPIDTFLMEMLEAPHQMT
The test is described as follows: FXR in vitro assays (farnesoid X receptor/ECREx7 co-transfection assay, TR-FRET assay), Table I. It is filed as cell-based. Conditions: for Emax: read-out: % Efficacy. On the procedure:
The basic co-transfection protocol for measuring the farnesoid X receptor activity is as follows. CV-1 African Green Monkey Kidney cells were plated 24 hours before transfection to achieve approximately 70-80 percent confluency. […] The assay was allowed to continue for an additional 18-20 hours, after which the cells were lysed, with lysis buffer (1% triton X 100, 10% glycerol, 5 mM Dithiothreitol, 1 mM EGTA, 25 mM Tricine, pH 7.8) and the luciferase activity measured in the presence of Luciferase assay buffer (0.73 mM ATP, 22.3 mm Tricine, 0.11 mM EGTA, 0.55 mM Luciferin, 0.15 mM Coenzyme A, 0.5 mM HEPES, 10 mM Magnesium sulphatc) on a standard luminometer plate reader (PE Biosystems, NorthStar Reader), using recommended operating instructions and conditions.
The dose response curves are generated from an 8 point curve with concentrations differing by ½ LOG units. Each point represents the average of 4 wells of data from a 384 well plate. A curve for the data is generated by using the equation:
Y=Bottom+(Top−Bottom)/(1+10̂((Log EC50−X)*HillSlope))
The EC50/IC50 is therefore defined as the concentration at which an agonist or antagonist elicits a response that is half way between the Top (maximum) and Bottom (baseline) values. The EC50/IC50 values represented are the averages of at least 3 independent experiments.

Setting [1] is: agonist activity, one or more of the in vitro assays, read-out: EC50.

Read-outs that look alike come from different tables or passages of the source.

Regarding `CCN1CCN(Cc2cccc(C(=O)N3C=C(C(=O)OC(C)C)c4[nH]c5ccccc5c4C(C)(C)C3)c2)CC1` [Example 120, 1-methylethyl 3-({3-[(4-ethylpiperazin-1-yl)methyl]phenyl}carbonyl)-1,1-dimethyl-1,2,3,6-tetrahydroazepino[4,5-b]indole-5-carboxylate], the Emax was more than 100%. Moreover, the EC50 under setting [1] lay in the range of 100 to 1000 nM.
Regarding `CC(C)OC(=O)C1=CN(C(=O)c2cc(F)c(F)cc2F)CC(C)(C)c2c1[nH]c1ccccc21` [Example 79, 1-methylethyl 1,1-dimethyl-3-[(2,4,5-trifluorophenyl)carbonyl]-1,2,3,6-tetrahydroazepino[4,5-b]indole-5-carboxylate], the Emax was more than 100%. Also, the EC50 under setting [1] was 1 to 10 nM.
`CC(C)OC(=O)C1=CN(C(=O)C2CCCCCC2)CC(C)(C)c2c1[nH]c1ccccc21` [Example 12, 1-Methylethyl 3-[(3,4-Difluorophenyl)Carbonyl]-8-[(f{[2-(Dimethylamino)Ethyl]amino}Carbonyl)Oxy]-1,1-Dimethyl-1,2,3,6-tetrahydroazepino[4,5-b]Indole-5-Carboxylate]: the Emax is more than 100%. The EC50 under setting [1] fell in the range of 10 to 100 nM.
As to `CCN(CC)CCNC(=O)Oc1ccc2c3c([nH]c2c1)C(C(=O)OC(C)C)=CN(C(=O)c1ccc(F)c(F)c1)CC3(C)C` [Example 97, 1-methylethyl 8-[({[2-(diethylamino)ethyl]amino}carbonyl)oxy]-3-[(3,4-difluorophenyl)carbonyl]-1,1-dimethyl-1,2,3,6-tetrahydroazepino[4,5-b]indole-5-carboxylate], the EC50 lay within 10 to 100 nM and the Emax is more than 100%.
Consider `CC(C)OC(=O)C1=CN(C(=O)NCc2ccccc2)CC(C)(C)c2c1[nH]c1ccccc21` [Example 49, 1-methylethyl 1,1-dimethyl-3-{[(phenylmethyl)amino]carbonyl}-1,2,3,6-tetrahydroazepino[4,5-b]indole-5-carboxylate], for which the Emax lay within 80 to 100%. Under setting [1], the EC50 was 1000 to 10000 nM.
As to `CCN(CC)CCN(CC)C(=O)N1C=C(C(=O)OC(C)C)c2[nH]c3ccccc3c2C(C)(C)C1` [Example 27, 1-methylethyl 3-({[2-(diethylamino)ethyl](ethyl)amino}carbonyl)-1,1-dimethyl-1,2,3,6-tetrahydro azepino [4,5-b]indole-5-carboxylate], under setting [1], the EC50 lay in the range of 1000 to 10000 nM.
With `CC(=O)C1=CNCC(C)(C)c2c1[nH]c1ccccc21` [Example 21], the EC50 under setting [1] was 1000 to 10000 nM.
Regarding `CC1(C)CN(C(=O)c2ccc(F)c(F)c2)C=C(C(=O)NOCC(O)CO)c2[nH]c3ccccc3c21` (stereo not shown) [Example 161, 3-[(3,4-difluorophenyl)carbonyl]-N-[(2,3-dihydroxypropyl)oxy]-1,1-dimethyl-1,2,3,6-tetrahydroazepino[4,5-b]indole-5-carboxamide], under setting [1], the EC50 was more than 10000 nM.
Regarding `CC(C)OC(=O)C1=CN(C(=O)c2ccccc2)CC(C)(C)c2c1[nH]c1ccccc21` [Example 62, 1-methylethyl 1,1-dimethyl-3-(phenylcarbonyl)-1,2,3,6-tetrahydroazepino[4,5-b]indole-5-carboxylate], the Emax was more than 100%. Further, the EC50 under setting [1] was in the range of 1 to 10 nM.
On the same counts, the results for `CC(C)OC(=O)C1=CN(C(=O)c2cccc3c2OC(F)(F)O3)CC(C)(C)c2c1[nH]c1ccccc21` [Example 91, 1-methylethyl 3-[(2,2-difluoro-1,3-benzodioxol-4-yl)carbonyl]-1,1-dimethyl-1,2,3,6-tetrahydroazepino[4,5-b]indole-5-carboxylate] are more than 100% and 10 to 100 nM.
For `COc1ccc(C(=O)N2C=C(C(=O)OC(C)C)c3[nH]c4ccccc4c3C(C)(C)C2)cc1` [Example 89, 1-methylethyl 1,1-dimethyl-3-{[4-(methyloxy)phenyl)carbonyl}-1,2,3,6-tetrahydroazepino[4,5-b]indole-5-carboxylate], the Emax is more than 100%. Also, the EC50 under setting [1] was in the range of 1 to 10 nM.

Usually EC50 stands for the concentration needed to bring the measured effect to its halfway point.

These data come from US20090203577A1 (EXELIXIS, INC., priority 2005, published 2009).
